Measurements reported in patent US4358441A, “Nicotinic derivatives of glucosamine and related pharmaceutical compositions” (Laboratorio Guidotti & C. S.p.A., priority 1980, dated 1982).

What was measured:
[1] = test system: plasma levels of triglycerides; test: Effect of oral administration on plasma levels of triglycerides in the empty rat; type: in vivo, rat (COBS CD (SD) BR male); conditions: for Percent variations of plasma triglycerides with respect to the controls / Percent variations of plasma triglycerides with respect to the control: empty rat; for Time within which the effect on triglycerides disappears: rat; for Percent variations of plasma triglycerides with respect to the control: Table 5, 100 mg/kg oral referred to nicotinic acid
plasma levels of FFA = test: Effect of oral administration on plasma levels of FFA in the empty rat; conditions: for Percent variations of plasma FFA with respect to the controls / Percent variations of plasma FFA with respect to the control: empty rat; for Percent variations of plasma FFA with respect to the control: Table 5, 100 mg/kg oral referred to nicotinic acid
[2] = test system: plasma levels of cholesterol; test: Effect of oral administration on plasma levels of cholesterol in the empty rat; type: in vivo, rat (COBS CD (SD) BR male); conditions: for Percent variations of plasma cholesterol with respect to the controls: 100 mg/kg oral referred to nicotinic acid; for Percent variations of plasma cholesterol with respect to the controls / Percent variations of plasma cholesterol with respect to the control: empty rat; for Percent variations of plasma cholesterol with respect to the control: Table 5, 100 mg/kg oral referred to nicotinic acid
in vivo = conditions: rat
rats of both sexes = test: Acute toxicity (LD50) in rats of both sexes, oral and intraperitoneal route; conditions: rat
[3] = test system: plasma levels of free glycerol; test: Effect of oral administration on plasma levels of free glycerol in the empty rat; type: in vivo, rat (COBS CD (SD) BR male); conditions: for Percent variations of plasma free glycerol with respect to the controls: empty rat
Solubility = type: physicochemical
[4] = 30 mg/kg oral referred to nicotinic acid, 1 h
[5] = 30 mg/kg oral referred to nicotinic acid, 2 h
[6] = 30 mg/kg oral referred to nicotinic acid, 4 h
[7] = 30 mg/kg oral referred to nicotinic acid, 6 h
[8] = 30 mg/kg oral referred to nicotinic acid, 8 h
[9] = 30 mg/kg oral referred to nicotinic acid, 10 h
[10] = 30 mg/kg oral referred to nicotinic acid, 12 h
[11] = 30 mg/kg oral referred to nicotinic acid, 16 h
[12] = 100 mg/kg oral referred to nicotinic acid, 2 h
[13] = 100 mg/kg oral referred to nicotinic acid, 4 h
[14] = 100 mg/kg oral referred to nicotinic acid, 6 h
[15] = 100 mg/kg oral referred to nicotinic acid, 8 h
[16] = 100 mg/kg oral referred to nicotinic acid, 10 h
[17] = 100 mg/kg oral referred to nicotinic acid, 16 h
[18] = 100 mg/kg oral referred to nicotinic acid, 24 h
[19] = 100 mg/kg oral referred to nicotinic acid, 32 h

Structure (SMILES): O=C(N[C@H]1C(OC(=O)c2cccnc2)O[C@H](COC(=O)c2cccnc2)[C@@H](OC(=O)c2cccnc2)[C@@H]1OC(=O)c1cccnc1)c1cccnc1 (stereo partly drawn) [GLUN, N-nicotinoyl-glucosamine tetranicotinate]
- Percent variations of plasma triglycerides with respect to the controls [1, 4]: -2%
- Percent variations of plasma triglycerides with respect to the controls [1, 5]: -45%
- Percent variations of plasma triglycerides with respect to the controls [1, 6]: -44%
- Percent variations of plasma triglycerides with respect to the controls [1, 7]: -41%
- Percent variations of plasma triglycerides with respect to the controls [1, 8]: -36%
- Percent variations of plasma triglycerides with respect to the controls [1, 9]: -62%
- Percent variations of plasma triglycerides with respect to the controls [1, 10]: -31%
- Percent variations of plasma triglycerides with respect to the controls [1, 11]: +31%
- Time within which the effect on triglycerides disappears ([1]; 30 mg/kg oral): ≤ 16 h
- Percent variations of plasma triglycerides with respect to the controls [1, 12]: -52%
- Percent variations of plasma triglycerides with respect to the controls [1, 13]: -65%
- Percent variations of plasma triglycerides with respect to the controls [1, 14]: -72%
- Percent variations of plasma triglycerides with respect to the controls [1, 15]: -75%
- Percent variations of plasma triglycerides with respect to the controls [1, 16]: -65%
- Percent variations of plasma triglycerides with respect to the controls [1, 17]: -67%
- Percent variations of plasma triglycerides with respect to the controls [1, 18]: 3%
- Percent variations of plasma triglycerides with respect to the controls [1, 19]: +13%
- Time within which the effect on triglycerides disappears ([1]; 100 mg/kg oral): within the twenty fourth hour
- Percent variations of plasma FFA with respect to the controls (plasma levels of FFA; [4]): -33%
- Percent variations of plasma FFA with respect to the controls (plasma levels of FFA; [5]): -67%
- Percent variations of plasma FFA with respect to the controls (plasma levels of FFA; [6]): -3%
- Percent variations of plasma FFA with respect to the controls (plasma levels of FFA; [7]): -16%
- Depression of plasma FFA (plasma levels of FFA; 30 mg/kg oral, rat): still active in the second hour
- Percent variations of plasma FFA with respect to the controls (plasma levels of FFA; [12]): -74%
- Percent variations of plasma FFA with respect to the controls (plasma levels of FFA; [13]): -41%
- Percent variations of plasma FFA with respect to the controls (plasma levels of FFA; [14]): -28%
- Percent variations of plasma FFA with respect to the controls (plasma levels of FFA; [15]): -43%
- Percent variations of plasma FFA with respect to the controls (plasma levels of FFA; [16]): -40%
- Percent variations of plasma FFA with respect to the controls (plasma levels of FFA; [17]): -7%
- Percent variations of plasma FFA with respect to the controls (plasma levels of FFA; [18]): -2%
- Time within which the effect on FFA disappears (plasma levels of FFA; 100 mg/kg oral, rat): ≤ 16 h
- Percent variations of plasma cholesterol with respect to the controls ([2]; 4 h): +9%
- Percent variations of plasma cholesterol with respect to the controls ([2]; 6 h): -4%
- Percent variations of plasma cholesterol with respect to the controls ([2]; 8 h): -13%
- Percent variations of plasma cholesterol with respect to the controls ([2]; 10 h): -29%
- Percent variations of plasma cholesterol with respect to the controls ([2]; 16 h): -53%
- Percent variations of plasma cholesterol with respect to the controls ([2]; 24 h): -37%
- Percent variations of plasma cholesterol with respect to the controls ([2]; 32 h): -42%
- Percent variations of plasma cholesterol with respect to the controls ([2]; 48 h): -29%
- Cholesterol lowering effect with respect to that of the reference standards ([2]; 100 mg/kg oral, rat): constantly more relevant
- Lowering of cholesterolemy ([2]; 100 mg/kg oral, rat): depresses the cholesterolemy from the eighth to the fortyeighth hour
- LD50 (in vivo; ip, female): 6750 mg/kg
- LD50 (in vivo; ip, male): 6650 mg/kg
- LD50 (in vivo; po, female, os): > 8000 mg/kg
- LD50 (in vivo; po, male, os): > 8000 mg/kg
- Acute toxicity lower than that of nicotinic acid (rats of both sexes; intraperitoneal route): 20 times
- Acute toxicity lower than that of nicotinic acid (rats of both sexes; oral route): 2 times
- Percent variations of plasma free glycerol with respect to the controls [3, 4]: -27%
- Percent variations of plasma free glycerol with respect to the controls [3, 5]: -63%
- Percent variations of plasma free glycerol with respect to the controls [3, 6]: -7%
- Percent variations of plasma free glycerol with respect to the controls [3, 7]: -17%
- Percent variations of plasma free glycerol with respect to the controls [3, 8]: -25%
- Percent variations of plasma free glycerol with respect to the controls [3, 9]: -4%
- Percent variations of plasma free glycerol with respect to the controls [3, 10]: -5%
- Percent variations of plasma free glycerol with respect to the controls [3, 11]: +5%
- Activity on free glycerol ([3]; 30 mg/kg oral, rat): active at the 2nd hour
- Percent variations of plasma free glycerol with respect to the controls [3, 12]: -81%
- Percent variations of plasma free glycerol with respect to the controls [3, 13]: -47%
- Percent variations of plasma free glycerol with respect to the controls [3, 14]: -24%
- Percent variations of plasma free glycerol with respect to the controls [3, 15]: -32%
- Percent variations of plasma free glycerol with respect to the controls [3, 16]: -41%
- Percent variations of plasma free glycerol with respect to the controls [3, 17]: +3%
- Percent variations of plasma free glycerol with respect to the controls [3, 18]: 0%
- Percent variations of plasma free glycerol with respect to the controls [3, 19]: +16%
- Time within which the effect on free glycerol disappears ([3]; 100 mg/kg oral, rat): within the sixteenth hour

Structure (SMILES): O=C(N[C@H]1[C@H](OC(=O)c2cccnc2)O[C@H](COC(=O)c2cccnc2)[C@@H](OC(=O)c2cccnc2)[C@@H]1OC(=O)c1cccnc1)c1cccnc1 [β, β-N-nicotinoyl-glucosamine tetranicotinate]
- Percent variations of plasma triglycerides with respect to the control ([1]; 2 h): -53%
- Percent variations of plasma triglycerides with respect to the control ([1]; 4 h): -77%
- Percent variations of plasma triglycerides with respect to the control ([1]; 8 h): -69%
- Percent variations of plasma FFA with respect to the control (plasma levels of FFA; 2 h): -67%
- Percent variations of plasma FFA with respect to the control (plasma levels of FFA; 4 h): -30%
- Percent variations of plasma FFA with respect to the control (plasma levels of FFA; 8 h): -44%
- Solubility (Solubility): slightly soluble in acetone, ethanol and chloroform, but soluble in dilute acids
- Percent variations of plasma cholesterol with respect to the control ([2]; 4 h): -2%
- Percent variations of plasma cholesterol with respect to the control ([2]; 8 h): -17%
- Percent variations of plasma cholesterol with respect to the control ([2]; 24 h): -43%
